5 compounds from ChEMBL document CHEMBL3112509, “Synthesis and antimicrobial activity of (1,4-phenylene)bis(arylsulfonylpyrazoles and isoxazoles)” (2014) can be followed below.

Converted amounts (≈) assume the structure as drawn.

Common to all, as to type: functional
Assay [1] has as its system Bacillus subtilis. In words: Antibacterial activity against Bacillus subtilis after 24 hrs.
Assay [2] has as its system Pseudomonas aeruginosa. The assay is described as follows: Antibacterial activity against Pseudomonas aeruginosa at 100 ug/well after 24 hrs by agar well diffusion method. The following applies: read-out: DIZ. On the technique in general: A growth-free zone around the sample is the usual read-out of agar diffusion tests.
In assay [3] the test system is Penicillium chrysogenum. In words: Antifungal activity against Penicillium chrysogenum after 48 hrs.
Assay [4] concerns Bacillus subtilis. The assay is described as follows: Antibacterial activity against Bacillus subtilis after 24 hrs by broth dilution test.
Assay [5] concerns Penicillium chrysogenum. In words: Antifungal activity against Penicillium chrysogenum at 50 ug/well after 48 hrs by agar well diffusion method. The following applies: read-out: DIZ.
Assay [6] deals with Aspergillus niger. In words: Antifungal activity against Aspergillus niger after 48 hrs by broth dilution test. On the technique in general: Dilution methods test growth across graded concentrations, often in twofold steps.
Assay [7] has as its system Penicillium chrysogenum. The assay is described as follows: Antifungal activity against Penicillium chrysogenum at 100 ug/well after 48 hrs by agar well diffusion method. The following applies: read-out: DIZ.
The test system of assay [8] is Pseudomonas aeruginosa. In words: Antibacterial activity against Pseudomonas aeruginosa after 24 hrs.
Assay [9] concerns Klebsiella pneumoniae. The assay is described as follows: Antibacterial activity against Klebsiella pneumoniae at 50 ug/well after 24 hrs by agar well diffusion method. The following applies: read-out: DIZ.
Assay [10] has as its system Pseudomonas aeruginosa. In words: Antibacterial activity against Pseudomonas aeruginosa at 50 ug/well after 24 hrs by agar well diffusion method. The following applies: read-out: DIZ.
Assay [11] concerns Bacillus subtilis. The assay is described as follows: Antibacterial activity against Bacillus subtilis at 50 ug/well after 24 hrs by agar well diffusion method. The following applies: read-out: DIZ.
For assay [12], the system named is Klebsiella pneumoniae. The assay is described as follows: Antibacterial activity against Klebsiella pneumoniae after 24 hrs by broth dilution test.
Assay [13] concerns Aspergillus niger. The assay is described as follows: Antifungal activity against Aspergillus niger at 50 ug/well after 48 hrs by agar well diffusion method. The following applies: read-out: DIZ.
Assay [14] concerns Klebsiella pneumoniae. In words: Antibacterial activity against Klebsiella pneumoniae after 24 hrs.
Assay [15] deals with Pseudomonas aeruginosa. The assay is described as follows: Antibacterial activity against Pseudomonas aeruginosa after 24 hrs by broth dilution test.
The subject of assay [16] is Bacillus subtilis. The assay is described as follows: Antibacterial activity against Bacillus subtilis at 100 ug/well after 24 hrs by agar well diffusion method. The following applies: read-out: DIZ.
Assay [17] relates to Staphylococcus aureus. The assay is described as follows: Antibacterial activity against Staphylococcus aureus at 100 ug/well after 24 hrs by agar well diffusion method. The following applies: read-out: DIZ.
Assay [18] relates to Klebsiella pneumoniae. In words: Antibacterial activity against Klebsiella pneumoniae at 100 ug/well after 24 hrs by agar well diffusion method. The following applies: read-out: DIZ.
Assay [19] relates to Aspergillus niger. In words: Antifungal activity against Aspergillus niger after 48 hrs.
Assay [20] relates to Aspergillus niger. In words: Antifungal activity against Aspergillus niger at 100 ug/well after 48 hrs by agar well diffusion method. The following applies: read-out: DIZ.
Assay [21] concerns Staphylococcus aureus. In words: Antibacterial activity against Staphylococcus aureus at 50 ug/well after 24 hrs by agar well diffusion method. The following applies: read-out: DIZ.
Assay [22] has as its system Staphylococcus aureus. In words: Antibacterial activity against Staphylococcus aureus after 24 hrs.
In assay [23] the test system is Staphylococcus aureus. The assay is described as follows: Antibacterial activity against Staphylococcus aureus after 24 hrs by broth dilution test.
The subject of assay [24] is Penicillium chrysogenum. The assay is described as follows: Antifungal activity against Penicillium chrysogenum after 48 hrs by broth dilution test.

By MBC is commonly meant the smallest concentration meeting the test's criterion for killing. Lower therefore signals greater bactericidal potency. As a reminder, the MFC is the smallest concentration meeting the test's criterion for killing the fungus. What is called MIC is the lowest concentration that inhibits growth of the organism. The low end stands for greater potency, the high end for weaker potency. Take `Cc1ccc(S(=O)(=O)c2c(-c3ccc(Cl)cc3)noc2-c2ccc(-c3onc(-c4ccc(Cl)cc4)c3S(=O)(=O)c3ccc(C)cc3)cc2)cc1`: the minimum bactericidal concentration (MBC) in [1] was 100 µg/mL (≈ 135 µM); in assay [8], more than 200 µg/mL; in [14], more than 200 µg/mL; in assay [22] it was 200 µg/mL (≈ 270 µM). Besides, the zone of inhibition at 100 µg/disc was 24 mm in assay [2]; 34 mm in [7]; 36 mm in assay [16]; 32 mm in assay [17]; 28 mm in [18]; 30 mm in assay [20]. The minimum fungicidal concentration (MFC) is 100 µg/mL (≈ 135 µM) in [3] and more than 200 µg/mL in assay [19]. Also, the MIC in [4] worked out at 25 µg/mL (≈ 33.7 µM); in [6] it was 50 µg/mL (≈ 67.4 µM); in assay [12], 100 µg/mL (≈ 135 µM); in [15], 50 µg/mL (≈ 67.4 µM); in assay [23], 50 µg/mL (≈ 67.4 µM); in [24] it was 25 µg/mL (≈ 33.7 µM). The zone of inhibition at 50 µg/disc in [5] stood at 32 mm; in assay [9], 26 mm; in assay [10] it was 22 mm; in [11], 33 mm; in assay [13], 28 mm; in assay [21], 30 mm.
As for `O=C(N[C@H](CO)[C@H](O)c1ccc([N+](=O)[O-])cc1)C(Cl)Cl` [CHLORAMPHENICOL], the zone of inhibition at 100 µg/disc in [2] was 30 mm; in assay [16] it was 38 mm; in [17], 35 mm; in assay [18] it was 42 mm. Further, the MIC in [4] was determined as 6.25 µg/mL (≈ 19.3 µM); in [12], 12.5 µg/mL (≈ 38.7 µM); in [15], 6.25 µg/mL (≈ 19.3 µM); in assay [23], 6.25 µg/mL (≈ 19.3 µM). Moreover, the zone of inhibition at 50 µg/disc came out at 40 mm in assay [9], 27 mm in [10], 34 mm in [11] and 33 mm in assay [21].
Regarding `O=S(=O)(c1ccc(Cl)cc1)c1c(-c2ccc(Cl)cc2)nn(-c2ccccc2)c1-c1ccc(-c2c(S(=O)(=O)c3ccc(Cl)cc3)c(-c3ccc(Cl)cc3)nn2-c2ccccc2)cc1`, the MBC is 200 µg/mL (≈ 214 µM) in assay [1], more than 200 µg/mL in assay [8], more than 200 µg/mL in [14] and more than 200 µg/mL in [22]. Besides, the zone of inhibition at 100 µg/disc amounted to 22 mm in assay [2]; 31 mm in assay [7]; 34 mm in assay [16]; 31 mm in [17]; 27 mm in assay [18]; 37 mm in [20]. For the same compound, the values for the minimal fungicidal concentration (MFC) in assay [3] and in assay [19] were more than 100 µg/mL and more than 200 µg/mL, respectively. The minimum inhibitory concentration (MIC) came out at 50 µg/mL (≈ 53.6 µM) in [4]; 50 µg/mL (≈ 53.6 µM) in assay [6]; 100 µg/mL (≈ 107 µM) in assay [12]; 50 µg/mL (≈ 53.6 µM) in [15]; 50 µg/mL (≈ 53.6 µM) in [23]; 25 µg/mL (≈ 26.8 µM) in [24]. In addition, the zone of inhibition at 50 µg/disc in assay [5] amounted to 28 mm; in [9], 25 mm; in [10], 20 mm; in assay [11], 32 mm; in assay [13] it was 34 mm; in assay [21], 29 mm.
Regarding `O=S(=O)(c1ccc(Cl)cc1)c1c(-c2ccc(Cl)cc2)noc1-c1ccc(-c2onc(-c3ccc(Cl)cc3)c2S(=O)(=O)c2ccc(Cl)cc2)cc1`, the minimal bactericidal concentration (MBC) in [1] amounted to 25 µg/mL (≈ 31.9 µM); in assay [8], 50 µg/mL (≈ 63.9 µM); in [14] it was 100 µg/mL (≈ 128 µM); in assay [22], 50 µg/mL (≈ 63.9 µM). Besides, the zone of inhibition at 100 µg/disc in assay [2] is 27 mm; in assay [7] it was 37 mm; in assay [16], 38 mm; in [17] it was 34 mm; in assay [18], 34 mm; in assay [20], 33 mm. Moreover, the MFC in assay [3] came out at 50 µg/mL (≈ 63.9 µM); in assay [19], 100 µg/mL (≈ 128 µM). For the same compound, the MIC was determined as 12.5 µg/mL (≈ 16 µM) in assay [4]; 12.5 µg/mL (≈ 16 µM) in [6]; 25 µg/mL (≈ 31.9 µM) in assay [12]; 12.5 µg/mL (≈ 16 µM) in [15]; 12.5 µg/mL (≈ 16 µM) in [23]; 25 µg/mL (≈ 31.9 µM) in assay [24]. The zone of inhibition at 50 µg/disc in assay [5] turned out to be 35 mm; in assay [9], 32 mm; in assay [10], 25 mm; in assay [11], 35 mm; in assay [13] it was 30 mm; in [21], 32 mm.
`O=S(=O)(c1ccccc1)c1c(-c2ccc(Cl)cc2)noc1-c1ccc(-c2onc(-c3ccc(Cl)cc3)c2S(=O)(=O)c2ccccc2)cc1`: the MBC is 50 µg/mL (≈ 70.1 µM) in assay [1], 200 µg/mL (≈ 280 µM) in assay [8], more than 200 µg/mL in assay [14] and 200 µg/mL (≈ 280 µM) in [22]. Also, the zone of inhibition at 100 µg/disc in [2] came to 26 mm; in assay [7] it was 36 mm; in [16] it was 37 mm; in [17] it was 33 mm; in [18], 30 mm; in assay [20] it was 31 mm. Moreover, the MFC in assay [3] was 100 µg/mL (≈ 140 µM); in assay [19] it was 200 µg/mL (≈ 280 µM). The minimal inhibitory concentration (MIC) came to 25 µg/mL (≈ 35 µM) in [4]; 50 µg/mL (≈ 70.1 µM) in assay [6]; 100 µg/mL (≈ 140 µM) in assay [12]; 50 µg/mL (≈ 70.1 µM) in assay [15]; 50 µg/mL (≈ 70.1 µM) in assay [23]; 25 µg/mL (≈ 35 µM) in [24]. Further, the zone of inhibition at 50 µg/disc in assay [5] came to 34 mm; in assay [9], 28 mm; in assay [10] it was 24 mm; in assay [11], 35 mm; in [13] it was 29 mm; in assay [21], 31 mm.
